Consider ten compounds from patent US9273057B2 (Bristol-Myers Squibb Company, priority 2012, dated 2016).

Structures can show the parent of a compound that is named as a salt.

The target of the experiment is CK2A1 (CK2α/β) (Homo sapiens, UniProt P68400). In words: CK2 kinase assay, CK2A1 (CK2α/β). It counts as biochemical. To be noted: Table A; read-out: CK2A1 (CK2α/β) (IC50).
CK2A1 (CK2α/β), sequence (P68400 whole entry, species assumed): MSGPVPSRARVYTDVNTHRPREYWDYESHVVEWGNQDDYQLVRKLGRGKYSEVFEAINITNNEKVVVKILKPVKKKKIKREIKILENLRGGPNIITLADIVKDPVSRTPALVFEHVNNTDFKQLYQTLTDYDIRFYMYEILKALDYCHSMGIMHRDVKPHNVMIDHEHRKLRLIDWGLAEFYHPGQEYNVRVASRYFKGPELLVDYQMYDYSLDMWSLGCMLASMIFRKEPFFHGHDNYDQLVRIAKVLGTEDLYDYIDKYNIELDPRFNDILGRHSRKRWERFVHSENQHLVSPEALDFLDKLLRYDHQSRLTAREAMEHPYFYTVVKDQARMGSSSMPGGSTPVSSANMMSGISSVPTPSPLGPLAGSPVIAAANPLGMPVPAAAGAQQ
CK2A1 (CK2α/β), sequence (P67870 whole entry partner, species assumed): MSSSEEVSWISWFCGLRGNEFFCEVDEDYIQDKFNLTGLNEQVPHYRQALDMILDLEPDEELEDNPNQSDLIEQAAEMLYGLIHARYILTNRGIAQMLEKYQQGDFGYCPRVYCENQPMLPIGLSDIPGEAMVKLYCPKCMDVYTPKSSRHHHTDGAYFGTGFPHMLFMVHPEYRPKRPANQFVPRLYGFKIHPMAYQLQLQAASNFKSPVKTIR
As for `CC(CC(C)N1CC(C)(O)C1)c1cc(Cl)c(Nc2nc(NC3CC3)c3ncc(C#N)n3n2)cc1C#N` (stereo not shown) [Example 736, 2-({2-chloro-5-cyano-4-[4-(3-hydroxy-3-methylazetidin-1-yl)pentan-2-yl]phenyl}amino)-4-(cyclopropylamino)imidazo [2,1-f][1,2,4]triazine-7-carbonitrile], the IC50 came to 4.86 nM. Next, `COC(=O)N[C@@H]1CN(c2cc(C#N)cc(Nc3nc(NC4CC4)c4ncc(C#N)n4n3)c2Cl)C[C@H]1O` (racemic) [Example 9, (+/−) methyl ((3R,4R)-1-(2-chloro-5-cyano-3-((7-cyano-4-(cyclopropylamino)imidazo [2,1-f][1,2,4]triazin-2-yl)amino)phenyl)-4-hydroxy-3-pyrrolidinyl)carbamate]: 0.66 nM.

On to `CCNc1nc(Nc2cc(C#N)cc(N3CC(N4CCN(C)CC4)C3)c2F)nn2c(C#N)cnc12` [Example 383, 2-((5-cyano-2-fluoro-3-(3-(4-methylpiperazin-1-yl)azetidin-1-yl)phenyl)amino)-4-(ethylamino)imidazo[2,1-f][1,2,4]triazine-7-carbonitrile], for which the IC50 came out at 0.77 nM. For `COC(=O)N1CCN(c2cc(C#N)cc(Nc3nc(NC4CC4)c4ncc(C#N)n4n3)c2Cl)CC1` [Example 67, methyl 4-(2-chloro-5-cyano-3-((7-cyano-4-(cyclopropylamino)imidazo[2,1-f] [1,2,4]triazin-2-yl)amino)phenyl)-1-piperazinecarboxylate] the value was 0.48 nM; for `CC(CN1CC(O)C1)c1cc(C#N)cc(Nc2nc(NC3CC3)c3ncc(C#N)n3n2)c1Cl` (stereo not shown) [Example 573, 2-((2-chloro-5-cyano-3-(1-(3-hydroxyazetidin-1-yl)propan-2-yl)phenyl)amino)-4-(cyclopropylamino)imidazo[2,1-f][1,2,4]triazine-7-carbonitrile], 1.3 nM; for `N#Cc1cc(Nc2nc(NC3CC3)c3ncc(C#N)n3n2)c(Cl)c(N2CC(N3CCC(O)C3)C2)c1` (racemic) [Example 159, (+/−) 2-((2-chloro-5-cyano-3-(3-(3-hydroxy-1-pyrrolidinyl)-1-azetidinyl)phenyl)amino)-4-(cyclopropylamino)imidazo [2,1-f][1,2,4]triazine-7-carbonitrile], 0.48 nM. For `CCNc1nc(Nc2cc(C#N)cc(N3CC[C@@H](NC(=O)OC)[C@H](OC(=O)[C@@H](N)CCCN)C3)c2Cl)nn2c(C#N)cnc12` [Example 811, (S)-(3R,4R)-1-(2-chloro-5-cyano-3-((7-cyano-4-(ethylamino)imidazo[2,1-f][1,2,4]triazin-2-yl)amino)phenyl)-4-((methoxycarbonyl)amino)piperidin-3-yl 2,5-diaminopentanoate dihydrochloride] the value was 1.88 nM. Next, `N#Cc1cc(Nc2nc(NC3CC3)c3ncc(C#N)n3n2)c(F)cc1OCCN1CCOCC1` [Example 416, 2-((5-cyano-2-fluoro-4-(2-morpholinoethoxy)phenyl)amino)-4-(cyclopropylamino)imidazo[2,1-f][1,2,4]triazine-7-carbonitrile]: 0.68 nM; `CC(C)(O)CC(=O)N1CC(N2CCN(c3cc(C#N)cc(Nc4nc(NC5CC5)c5ncc(C#N)n5n4)c3Cl)CC2)C1` [Example 490, 2-[(2-chloro-5-cyano-3-{4-[1-(3-hydroxy-3-methylbutanoyl)azetidin-3-yl]piperazin-1-yl}phenyl)amino]-4-(cyclopropylamino)imidazo[2,1-f][1,2,4]triazine-7-carbonitrile]: 0.94 nM; `N#Cc1cc(CN2CCC(O)CC2)c(Cl)c(Nc2nc(NC3CC3)c3ncc(C#N)n3n2)c1` [Example 672, 2-((2-chloro-5-cyano-3-((4-hydroxypiperidin-1-yl)methyl)phenyl)amino)-4-(cyclopropylamino)imidazo[2,1-f][1,2,4]triazine-7-carbonitrile]: 0.62 nM.
